Laboratory results from PubChem BioAssay AID248 (DTP/NCI, 2004).
Inconclusive results and toxic doses are left out. No stated cut-off is given here; in the data, active means T/C of 150% or more; inactive means T/C below 125%.

Tested on: L1210 leukemia ip in BDF1 mice, survival T/C
Assay: NCI In Vivo Anticancer Drug Screen. Data for tumor model L1210 Leukemia (intraperitoneal) in B6D2F1 (BDF1) mice
Conditions: endpoint: mean survival time, higher = longer survival
Outline: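 Ratio derived from survival: compound-dosed mice over vehicle-dosed mice, all bearing a transplantable tumor.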

[1] = dose: 100.0 mg/kg/injection, schedule: Q04DX003 (ip), vehicle: saline with Tween-80
[2] = dose: 200.0 mg/kg/injection, schedule: Q04DX003 (ip), vehicle: saline with Tween-80
[3] = dose: 400.0 mg/kg/injection, schedule: Q04DX003 (ip), vehicle: saline with Tween-80
[4] = dose: 100.0 mg/kg/injection, schedule: Q01DX001 (ip), vehicle: carboxymethylcellulose (CMC)
[5] = dose: 200.0 mg/kg/injection, schedule: Q01DX001 (ip), vehicle: carboxymethylcellulose (CMC)
[6] = dose: 400.0 mg/kg/injection, schedule: Q01DX001 (ip), vehicle: carboxymethylcellulose (CMC)
[7] = dose: 50.0 mg/kg/injection, schedule: Q01DX009 (ip), vehicle: saline with Tween-80
[8] = dose: 100.0 mg/kg/injection, schedule: Q01DX001 (ip), vehicle: saline
[9] = dose: 200.0 mg/kg/injection, schedule: Q01DX001 (ip), vehicle: saline
[10] = dose: 400.0 mg/kg/injection, schedule: Q01DX001 (ip), vehicle: saline
[11] = dose: 50.0 mg/kg/injection, schedule: Q01DX001 (ip), vehicle: carboxymethylcellulose (CMC)
[12] = dose: 100.0 mg/kg/injection, schedule: Q01DX009 (ip), vehicle: saline with Tween-80
[13] = dose: 200.0 mg/kg/injection, schedule: Q01DX009 (ip), vehicle: saline with Tween-80
[14] = dose: 100.0 mg/kg/injection, schedule: Q04DX003 (ip), vehicle: saline
[15] = dose: 200.0 mg/kg/injection, schedule: Q04DX003 (ip), vehicle: saline
[16] = dose: 400.0 mg/kg/injection, schedule: Q04DX003 (ip), vehicle: saline
[17] = dose: 100.0 mg/kg/injection, schedule: Q04DX003 (ip), vehicle: Klucel (hydroxypropylcellulose) (HPC)
[18] = dose: 200.0 mg/kg/injection, schedule: Q04DX003 (ip), vehicle: Klucel (hydroxypropylcellulose) (HPC)
[19] = dose: 400.0 mg/kg/injection, schedule: Q04DX003 (ip), vehicle: Klucel (hydroxypropylcellulose) (HPC)
[20] = dose: 100.0 mg/kg/injection, schedule: Q01DX009 (ip), vehicle: Klucel (hydroxypropylcellulose) (HPC)
[21] = dose: 200.0 mg/kg/injection, schedule: Q01DX009 (ip), vehicle: Klucel (hydroxypropylcellulose) (HPC)
[22] = dose: 400.0 mg/kg/injection, schedule: Q01DX009 (ip), vehicle: Klucel (hydroxypropylcellulose) (HPC)

Measured: T/C

O=[N+]([O-])c1ccc(/C=C\c2ccc(Cl)cc2S(=O)(=O)F)c(Cl)c1
inactive: dose: 100.0 mg/kg/injection, schedule: Q01DX009 (ip), vehicle: saline sonified 97 % of control | [1] 102 % of control | dose: 200.0 mg/kg/injection, schedule: Q01DX009 (ip), vehicle: saline sonified 97 % of control | [2] 96 % of control | dose: 400.0 mg/kg/injection, schedule: Q01DX009 (ip), vehicle: saline sonified 96 % of control | [3] 100 % of control

O=[N+]([O-])c1ccc(-c2ccccc2Cl)c([N+](=O)[O-])c1
inactive: [4] 91 % of control | [5] 91 % of control | [6] 97 % of control

Cc1cc(Cl)ccc1NC(=O)OCCOc1ccc([N+](=O)[O-])cc1
inactive: dose: 12.5 mg/kg/injection, schedule: Q01DX009 (ip), vehicle: saline with Tween-80 107 % of control | dose: 25.0 mg/kg/injection, schedule: Q01DX009 (ip), vehicle: saline with Tween-80 91 % of control | [7] 110 % of control

NC1=CCNC(=O)N1c1ccccc1
inactive: dose: 100.0 mg/kg/injection, schedule: Q01DX Z (ip), vehicle: methylcellulose (MC) 105 % of control

COC(=O)C1=CCN(C)CC1
inactive: [8] 93 % of control | [9] 101 % of control | [10] 93 % of control

O=C(O)CN1C(=O)NC(C2CC2)(C2CC2)C1=O
inactive: dose: 100.0 mg/kg/injection, schedule: Q04DX003 (ip), vehicle: acetone 100 % of control | dose: 200.0 mg/kg/injection, schedule: Q04DX003 (ip), vehicle: acetone 96 % of control | dose: 400.0 mg/kg/injection, schedule: Q04DX003 (ip), vehicle: acetone 100 % of control

NC(CS)=NCC12CC3CC(CC(C3)C1)C2
inactive: dose: 12.5 mg/kg/injection, schedule: Q04DX003 (ip), vehicle: carboxymethylcellulose (CMC) 93 % of control | dose: 25.0 mg/kg/injection, schedule: Q04DX003 (ip), vehicle: carboxymethylcellulose (CMC) 98 % of control

O=C1C=C(c2c(O)ccc3ccccc23)c2ccccc2C1=O
inactive: [11] 96 % of control | [4] 100 % of control | [5] 96 % of control | [6] 110 % of control

Nc1ccc(S(=O)(=O)Nc2ccc(N(CCCl)CCCl)cc2)cc1
inactive: [12] 108 % of control | [1] 105 % of control | [13] 113 % of control | [2] 103 % of control | dose: 400.0 mg/kg/injection, schedule: Q01DX009 (ip), vehicle: saline with Tween-80 111 % of control | [3] 102 % of control

OCc1ccc(Cl)cc1Cl
inactive: [7] 107 % of control | [12] 103 % of control | [1] 100 % of control | [13] 103 % of control | [2] 105 % of control | [3] 102 % of control

Cc1cc2nc(Cc3nc4cc(C)c(C)cc4[nH]3)[nH]c2cc1C
inactive: dose: 50.0 mg/kg/injection, schedule: Q01DX Z (ip), vehicle: saline 105 % of control | [8] 92 % of control | dose: 100.0 mg/kg/injection, schedule: Q01DX Z (ip), vehicle: saline 95 % of control | [14] 100 % of control | [9] 93 % of control | dose: 200.0 mg/kg/injection, schedule: Q01DX Z (ip), vehicle: saline 100 % of control | [15] 92 % of control | [10] 90 % of control | dose: 400.0 mg/kg/injection, schedule: Q01DX Z (ip), vehicle: saline 97 % of control | [16] 86 % of control

CCOC(=O)C(CC)(OC(C)=O)C(=O)CBr (stereo not drawn)
inactive: dose: 75.0 mg/kg/injection, schedule: Q01DX001 (ip), vehicle: acetone 87 % of control

CC1CP(=O)(Cc2ccccc2)C(C)(c2ccccc2)C1=O (stereo not drawn)
inactive: [17] 93 % of control | [18] 100 % of control | [19] 100 % of control

Cc1c(Cl)cccc1NC(=O)c1ccccc1C(=O)O
inactive: [20] 98 % of control | [17] 96 % of control | [21] 104 % of control | [18] 100 % of control | [22] 102 % of control | [19] 102 % of control

O=C1OC(c2ccccc2)=C/C1=C/c1ccccc1O
inactive: [7] 95 % of control | [12] 101 % of control | [13] 96 % of control

Cc1ccc(O)c[n+]1[O-]
inactive: [8] 94 % of control | [20] 103 % of control | [14] 101 % of control | [9] 97 % of control | [21] 94 % of control | [15] 97 % of control | [10] 100 % of control | [22] 103 % of control | [16] 103 % of control

CCOC(=O)C(OC(=O)c1ccccc1)(OC(=O)c1ccccc1)C(=O)OCC
inactive: [8] 101 % of control | [9] 93 % of control

CCCOC(=O)c1ccc(NCC(C)(C)N(C)C)cc1
inactive: [14] 100 % of control | [15] 97 % of control | [16] 97 % of control

O=C(Nc1ccccc1Cl)N1CCOCC1
inactive: dose: 100.0 mg/kg/injection, schedule: Q04DX002 (ip), vehicle: Klucel (hydroxypropylcellulose) (HPC) 106 % of control | dose: 200.0 mg/kg/injection, schedule: Q04DX002 (ip), vehicle: Klucel (hydroxypropylcellulose) (HPC) 103 % of control | dose: 400.0 mg/kg/injection, schedule: Q04DX002 (ip), vehicle: Klucel (hydroxypropylcellulose) (HPC) 87 % of control

COc1ccc(C=Nc2ccc(O)cc2)cc1
inactive: [8] 102 % of control | [14] 101 % of control | [9] 100 % of control | [15] 108 % of control | [10] 103 % of control | [16] 101 % of control

COC(=O)CCC(=O)NCC(=O)OCc1ccccc1
inactive: dose: 100.0 mg/kg/injection, schedule: Q01DX001 (ip), vehicle: water 105 % of control | dose: 100.0 mg/kg/injection, schedule: Q04DX003 (ip), vehicle: water 100 % of control | dose: 200.0 mg/kg/injection, schedule: Q01DX001 (ip), vehicle: water 107 % of control | dose: 200.0 mg/kg/injection, schedule: Q04DX003 (ip), vehicle: water 96 % of control | dose: 400.0 mg/kg/injection, schedule: Q01DX001 (ip), vehicle: water 105 % of control | dose: 400.0 mg/kg/injection, schedule: Q04DX003 (ip), vehicle: water 90 % of control

CCCCCCCCCCCCCCCC(=O)Nc1cccc(C)c1C
inactive: dose: 100.0 mg/kg/injection, schedule: Q04DX002 (ip), vehicle: saline with Tween-80 93 % of control | dose: 200.0 mg/kg/injection, schedule: Q04DX002 (ip), vehicle: saline with Tween-80 86 % of control

N#CCCNC(CO)C(=O)O (stereo not drawn)
inactive: [4] 94 % of control | [5] 92 % of control | [6] 89 % of control

O=[N+]([O-])c1ccc(CCBr)cc1
inactive: [11] 96 % of control | [4] 94 % of control | [5] 100 % of control | [6] 105 % of control
